Assay results as given in patent publication US20250275966A1, “GABAA RECEPTOR MODULATOR SALTS, PARTICLES, AND USES THEREOF” (Engrail Therapeutics, Inc., priority 2022, published 2025).
Structures can show the parent of a compound that is named as a salt.

Key:
[1] = Oral non-human primate crossover PK study (Example 7); format: in vivo, cynomolgus monkeys; conditions: four male cynomolgus monkeys, single PO capsule, 34.2 mg/kg fumarate salt (M-3, N-3); for C24(h): 24 hours post-dose, 30 mg/kg free base (K-13); for AUC / Tmax: equivalent on a molar basis to 30 mg/kg free base (K-13)
Excerpt: An objective of this study is to determine the Pharmacokinetic (PK) profile of the Test Article following a single oral administration to four male non-human primate cynomolgus monkeys with one (1) week wash out periods.
Four male animals are used for this study, and the four study animals are used for each of three dosing phases with one-week washout periods. Food is withheld overnight prior to dose administration, and food is returned four hours post-dose administration. Water is provided ad libitum by automatic watering device. Two of the four animals are previously treated with Compound 1, and the other two are Compound 1 naive. Test Article (M-3, N-3, or K-13) are provided as capsulized powders; stored at room temperature protected from light in, for example, a polyolefin bottle.

[2] = Exposure after oral dose of micronized vs non-micronized particles of Compound 1 free base (Example 3); format: in vivo; conditions: male Cynomolgus monkeys, QD, 300 mg/kg, plasma, Mean (n = 3)
Protocol: Exposure of Compound 1 free base following oral (PO) dose administration of 300 mg/kg/dose of micronized particles (Example 1) and 300 mg/kg/dose non-micronized particles (Example 2) were assessed in male Cynomolgus monkeys. Blood samples were collected in K2EDTA coated polypropylene tubes from the femoral vein and plasma was separated. Samples were drawn at the following time points: pre-dose, 15 min, 30 min, 1, 2, 4, 8, 10, 12, 14, 24, 30, and 48 hours post-dose. The concentrations of Compound 1 were determined by LC-MS/MS and pharmacokinetic parameters were determined using Phoenix WinNonlin v8.0) software. [table]

[3] = Pharmacokinetic analysis of Compound 1 and its salts after oral capsule administration (Example 4); format: in vivo, cynomolgus monkeys; conditions: 3 male cynomolgus monkeys, single PO capsule, 30 mg/kg, plasma Compound 1
Protocol: A pharmacokinetic analysis was performed comparing administration of Compound 1 with certain salts of Compound 1 after oral (PO) administration in 3 male cynomolgus monkeys. The subjects received a single PO oral gavage of active pharmaceutical ingredient (API) (e.g., Compound 1 fumarate, Compound 1 sulfate, Compound 1 hydrochloride, Compound 1 phosphate, Compound 1 tosylate, Compound 1 malonate, Compound 1 maleate, or Compound 1 free base) in a capsule at a dose of 30 mg/kg. Following dose administration, the animals were flushed with approximately 10 milliliters of tap water to ensure all API was administered. Animals were observed twice daily and at sample collection time-points for any abnormal clinical and behavioral signs. Body weights were taken prior to dosing and weekly thereafter until study termination. Blood samples (0.5 mL) were collected pre-dose, 15 minutes, 30 minutes, and 1, 2, 4, 6, 8, 10, 12, and 24 hours post-dose. Each blood sample was collected from the monkey's femoral, saphenous or other available vein via direct venipuncture, placed into a polypropylene tube containing K2EDTA as the anticoagulant, and gently inverted several times to mix. The blood samples were kept on wet ice until centrifugation. Blood was centrifuged within 10 minutes of collection. The samples were centrifuged at a temperature of 4° C., at 3,000 g, for 5 minutes. The resulting plasma (˜0.25 mL) was divided into two equal aliquots (125 μL each) into polypropylene tubes, designated as Set A and Set B, after centrifugation. Plasma samples designated for certain metabolites (Set A) were treated with 12.5 μL of 2 M ascorbic acid (plasma: ascorbic acid=[…], v:v) prepared beforehand by combining 0.352 g of ascorbic acid into 1 mL of sterile water in a glass vial and mixing thoroughly. […] Once plasma was prepared, the samples were snap frozen on dry ice. All plasma samples were stored frozen below −70° C. until analyzed.

[4] = Intrinsic dissolution rate and solubility in 0.1 N HCl with 1% Tween 80 (USP <1087>); format: physicochemical; conditions: 0.1 N HCl with 1% Tween 80, 37° C.; for Solubility, time point 15 min / Solubility, time point 30 min / Solubility, time point 45 min / Solubility, time point 60 min / Solubility, time point 75 min / Solubility, time point 90 min / Solubility, time point 105 min / Solubility, time point 120 min: 500 mL, pellet about 75 mg; for Intrinsic Dissolution Rate IDR: paddle 100 rpm, die surface 0.5 cm^2; for Solubility, Cumulative: sum of the 15-120 min time points
Protocol: The intrinsic dissolution rate was determined by forming compacted pellets of approximately 75 mg of API using a compression force of 1200 pounds of force, and each pellet (die surface area: 0.5 cm^2) was immersed into a flat bottom vessel containing 500 mL of medium (aqueous 0.1 N HCl with 1% Tween 80 (polyoxyethylene (20) sorbitan monooleate)), using a Distek 2100A dissolution bath, and Distek Circulator/heater (set to 37° C.), with a paddle speed of 100 rpm. An aliquot of the sample (1 mL) was pulled from dissolution media at 15, 30, 45, 60, 75, 90, 105, and 120 minutes, filtered, and analyzed by HPLC. The slope of the dissolution profile corresponded to an intrinsic dissolution rate of hemi-fumarate salt Form B of 6.2 μg/(min·cm^2) as compared to 8.9 μg/(min·cm^2) for Compound 1 (free base). Determination of intrinsic dissolution rate (IDR) was performed for Compound 1 and seven different salts of Compound 1 according to USP <1087> in 0.1 N hydrochloric acid with 1% Tween 80 (Polyoxyethylene […] sorbitan monooleate). Compacted pellets containing approximately 75 mg API were prepared using a compression force of 1200 pounds of force, and each pellet (die surface area: 0.5 cm^2) was immersed into a flat bottom vessel containing 500 mL of medium, using a Distek 2100A dissolution bath, and Distek Circulator/heater (set to 37° C.), with a paddle speed of 100 rpm. An aliquot of the sample (1 mL) was pulled from dissolution media at 15, 30, 45, 60, 75, 90, 105, and 120 minutes, filtered, and analyzed by HPLC. HPLC for IDR and solid-state stability analyses were conducted with an Agilent 1260 Infinity system equipped with a G1311B Quad pump, […] Autosampler, G1330B auto-sampler thermostat, G1316A Thermostatted Column Compartment with a column switch valve, and […] diode array detector.

In the case of `[2H]C([2H])([2H])C(c1cc2nnc(-c3cc(F)ccc3F)n2nc1OCc1ncnn1C)(C([2H])([2H])[2H])C([2H])([2H])[2H]` [Compound M-3], the “C24(h)” value [1] is reported as 603 ng·mL, the AUC [1] is reported as 17826 ng·h/mL and the Tmax [1] is reported as 10 h.
With `[2H]C([2H])([2H])C(c1cc2nnc(-c3cc(F)ccc3F)n2nc1OCc1ncnn1C)(C([2H])([2H])[2H])C([2H])([2H])[2H]` [micronized, 3-(2,5-difluorophenyl)-7-[1,1-di(methyl-d3)ethyl-2,2,2-d3]-6-[(1-methyl-1H-1,2,4-triazol-5-yl)methoxy]-1,2,4-triazolo[4,3-b]pyridazine] the AUClast/Dose [2] was 530 ± 537 kg·ng·h/mL/mg, the “AUC∞/Dose” value [2] was 650 ± 730 kg·ng·h/mL/mg and the AUC(0-inf) ([2]; male, cynomolgus monkey, po) was 195000 ± 219000 ng·h/mL. The AUC(0-t) ([2]; male, cynomolgus monkey, po) was 159000 ± 161000 ng·h/mL, the Cmax ([2]; male, cynomolgus monkey, po, read-out: Cmax) was 6900 ± 5500 ng/mL and the Tmax ([2]; male, cynomolgus monkey, po, read-out: Tmax) was 4 ± 3.5 h.
For `[2H]C([2H])([2H])C(c1cc2nnc(-c3cc(F)ccc3F)n2nc1OCc1ncnn1C)(C([2H])([2H])[2H])C([2H])([2H])[2H]` [Compound N-3], the “C24(h)” value [1] was 684 ng·mL, the AUC [1] was 21540 ng·h/mL and the Tmax [1] was 4 h.
With `[2H]C([2H])([2H])C(c1cc2nnc(-c3cc(F)ccc3F)n2nc1OCc1ncnn1C)(C([2H])([2H])[2H])C([2H])([2H])[2H]` [non-micronized, 3-(2,5-difluorophenyl)-7-[1,1-di(methyl-d3)ethyl-2,2,2-d3]-6-[(1-methyl-1H-1,2,4-triazol-5-yl)methoxy]-1,2,4-triazolo[4,3-b]pyridazine] the AUClast [2] was 89225 ± 104664 ng·h/mL, the AUClast/Dose [2] was 297 ± 349 kg·ng·h/mL/mg and the “AUC∞” value [2] was 98365 ± 119106 ng·h/mL. The “AUC∞/Dose” value [2] was 328 ± 397 kg·ng·h/mL/mg, the Cmax [2] was 5373 ± 4112 ng/mL and the Tmax [2] was 3.30 ± 1.20 h.
`[2H]C([2H])([2H])C(c1cc2nnc(-c3cc(F)ccc3F)n2nc1OCc1ncnn1C)(C([2H])([2H])[2H])C([2H])([2H])[2H]` [Maleate Salt, 3-(2,5-difluorophenyl)-7-[1,1-di(methyl-d3)ethyl-2,2,2-d3]-6-[(1-methyl-1H-1,2,4-triazol-5-yl)methoxy]-1,2,4-triazolo[4,3-b]pyridazine] gave an AUClast [3] of 20575 ng·h/mL, a Cmax [3] of 1388 ng/mL and a Tmax [3] of 12.0 h. The “Solubility, time point 15 min” value [4] was 0.245 µg/mL, the “Solubility, time point 30 min” value [4] was 0.36 µg/mL and the “Solubility, time point 45 min” value [4] was 0.462 µg/mL. For the same compound, the “Solubility, time point 60 min” value [4] was 0.567 µg/mL, the “Solubility, time point 75 min” value [4] was 0.681 µg/mL and the “Solubility, time point 90 min” value [4] was 0.791 µg/mL. For the same compound, the “Solubility, time point 105 min” value [4] was 0.941 µg/mL, the “Solubility, time point 120 min” value [4] was 1.01 µg/mL and the “Intrinsic Dissolution Rate IDR” value [4] was 7.3 μg/(min · cm^2). For the same compound, the “Solubility, Cumulative” value [4] was 5.057 µg/mL.
For `[2H]C([2H])([2H])C(c1cc2nnc(-c3cc(F)ccc3F)n2nc1OCc1ncnn1C)(C([2H])([2H])[2H])C([2H])([2H])[2H]` [Compound K-13, 3-(2,5-difluorophenyl)-7-[1,1-di(methyl-d3)ethyl-2,2,2-d3]-6-[(1-methyl-1H-1,2,4-triazol-5-yl)methoxy]-1,2,4-triazolo[4,3-b]pyridazine], the “C24(h)” value [1] was 42 ng·mL, the AUC [1] was 1192 ng·h/mL and the Tmax [1] was 14 h.
`[2H]C([2H])([2H])C(c1cc2nnc(-c3cc(F)ccc3F)n2nc1OCc1ncnn1C)(C([2H])([2H])[2H])C([2H])([2H])[2H]` [Phosphate Salt, 3-(2,5-difluorophenyl)-7-[1,1-di(methyl-d3)ethyl-2,2,2-d3]-6-[(1-methyl-1H-1,2,4-triazol-5-yl)methoxy]-1,2,4-triazolo[4,3-b]pyridazine] showed an AUClast [3] of 18378 ng·h/mL, a Cmax [3] of 1096 ng/mL and a Tmax [3] of 5.3 h. For the same compound, the “Solubility, time point 15 min” value [4] was 0.358 µg/mL, the “Solubility, time point 30 min” value [4] was 0.375 µg/mL and the “Solubility, time point 45 min” value [4] was 0.449 µg/mL. The “Solubility, time point 60 min” value [4] was 0.543 µg/mL, the “Solubility, time point 75 min” value [4] was 0.615 µg/mL and the “Solubility, time point 90 min” value [4] was 0.769 µg/mL. The “Solubility, time point 105 min” value [4] was 0.912 µg/mL, the “Solubility, time point 120 min” value [4] was 0.11 µg/mL and the “Intrinsic Dissolution Rate IDR” value [4] was 7.0 μg/(min · cm^2). The “Solubility, Cumulative” value [4] was 4.131 µg/mL.
